Test results taken from PubChem BioAssay (NCI).
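A five-concentration, 48-hour dose response in 96-well plates underlies each endpoint, interpolated linearly between surrounding concentrations. TGI denotes the concentration required for complete inhibition of growth.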

Experiments:
Experiment in all cases: DTP human tumour cell line panel, 48 h
[1] = test system: 786-0 renal
[2] = test system: A498 renal
[3] = test system: A549 NSCLC
[4] = test system: ACHN renal
[5] = test system: CAKI-1 renal
[6] = test system: CCRF-CEM leukemia
[7] = test system: COLO 205 colon
[8] = test system: DLD-1 colon
[9] = test system: DMS 114 small cell lung
[10] = test system: DMS 273 small cell lung
[11] = test system: EKVX NSCLC
[12] = test system: HCC-2998 colon
[13] = test system: HCT-116 colon
[14] = test system: HCT-15 colon
[15] = test system: HL-60(TB) leukemia
[16] = test system: HOP-18 NSCLC
[17] = test system: HOP-62 NSCLC
[18] = test system: HOP-92 NSCLC
[19] = test system: HT29 colon
[20] = test system: IGROV1 ovarian
[21] = test system: K-562 leukemia
[22] = test system: KM12 colon
[23] = test system: KM20L2 colon
[24] = test system: LOX IMVI melanoma
[25] = test system: LXFL 529 NSCLC
[26] = test system: M14 melanoma
[27] = test system: M19-MEL melanoma
[28] = test system: MALME-3M melanoma
[29] = test system: MOLT-4 leukemia
[30] = test system: NCI-H226 lung
[31] = test system: NCI-H23 lung
[32] = test system: NCI-H460 lung
[33] = test system: NCI-H522 lung
[34] = test system: OVCAR-3 ovarian
[35] = test system: OVCAR-4 ovarian
[36] = test system: OVCAR-5 ovarian
[37] = test system: OVCAR-8 ovarian
[38] = test system: RPMI-8226 leukemia
[39] = test system: RXF 393 renal
[40] = test system: SF-268 CNS
[41] = test system: SF-295 CNS
[42] = test system: SF-539 CNS
[43] = test system: SK-MEL-2 melanoma
[44] = test system: SK-MEL-28 melanoma
[45] = test system: SK-MEL-5 melanoma
[46] = test system: SK-OV-3 ovarian
[47] = test system: SN12C renal
[48] = test system: SNB-19 CNS
[49] = test system: SNB-75 CNS
[50] = test system: SNB-78 CNS
[51] = test system: SR leukemia
[52] = test system: SW-620 colon
[53] = test system: TK-10 renal
[54] = test system: U251 CNS
[55] = test system: UACC-257 melanoma
[56] = test system: UACC-62 melanoma
[57] = test system: UO-31 renal
[58] = test system: XF 498 CNS
[59] = test system: RXF-631 renal

[N-]=[N+]=Nc1ncnc2c1sc(=S)n2-c1ccccc1
TGI [1]: > 100 µM | TGI [2]: > 100 µM | TGI [3]: > 100 µM | TGI [4]: > 100 µM | TGI [5]: > 100 µM | TGI [6]: > 100 µM | TGI [7]: > 100 µM | TGI [8]: > 100 µM | TGI [9]: > 100 µM | TGI [10]: > 100000 nM | TGI [11]: > 100000 nM | TGI [12]: > 100 µM | TGI [13]: > 100 µM | TGI [14]: > 100 µM | TGI [15]: > 100 µM | TGI [16]: > 100 µM | TGI [17]: 52.7 µM | TGI [18]: > 100000 nM | TGI [19]: > 100 µM | TGI [20]: > 100 µM | TGI [21]: > 100 µM | TGI [22]: > 100 µM | TGI [23]: > 100 µM | TGI [24]: > 100000 nM | TGI [25]: > 100 µM | TGI [26]: > 100000 nM | TGI [27]: > 100000 nM | TGI [28]: > 100000 nM | TGI [29]: > 100000 nM | TGI [30]: > 100 µM | TGI [31]: > 100000 nM | TGI [32]: > 100 µM | TGI [33]: > 100000 nM | TGI [34]: > 100 µM | TGI [35]: > 100 µM | TGI [36]: > 100000 nM | TGI [37]: > 100 µM | TGI [38]: > 100 µM | TGI [39]: > 100000 nM | TGI [40]: > 100 µM | TGI [41]: > 100 µM | TGI [42]: > 100000 nM | TGI [43]: > 100000 nM | TGI [44]: > 100000 nM | TGI [45]: > 100000 nM | TGI [46]: > 100 µM | TGI [47]: > 100 µM | TGI [48]: > 100 µM | TGI [49]: > 100000 nM | TGI [50]: > 100000 nM | TGI [51]: > 100000 nM | TGI [52]: > 100 µM | TGI [53]: > 100 µM | TGI [54]: > 100000 nM | TGI [55]: > 100 µM | TGI [56]: > 100 µM | TGI [57]: > 100000 nM | TGI [58]: > 100 µM

CN(C)[C@@H]1C(=O)C(C(=O)NCN2CCN(C(=N)N=C(N)N)CC2)=C(O)[C@@]2(O)C(=O)C3=C(O)c4c(O)cccc4[C@@](C)(O)[C@H]3C[C@@H]12
TGI [2]: 4.88 µM | TGI [4]: > 100 µM | TGI [5]: > 100 µM | TGI [6]: > 100 µM | TGI [7]: 14.1 µM | TGI [8]: 19.6 µM | TGI [10]: 922 nM | TGI [11]: 624 nM | TGI [13]: 17.8 µM | TGI [14]: 12.2 µM | TGI [17]: 3.99 µM | TGI [18]: 635 nM | TGI [19]: 16.7 µM | TGI [20]: 22 µM | TGI [21]: 10.5 µM | TGI [22]: 16.9 µM | TGI [23]: 11.6 µM | TGI [24]: 2040 nM | TGI [25]: 11.1 µM | TGI [26]: 1140 nM | TGI [27]: 2280 nM | TGI [28]: 566 nM | TGI [29]: 349 nM | TGI [31]: 330 nM | TGI [32]: 20.2 µM | TGI [33]: 143 nM | TGI [34]: 34.8 µM | TGI [36]: 709 nM | TGI [37]: 11.2 µM | TGI [38]: 14.7 µM | TGI [39]: 245 nM | TGI [59]: 763 nM | TGI [41]: 6.82 µM | TGI [42]: 415 nM | TGI [43]: 255 nM | TGI [44]: 541 nM | TGI [45]: 431 nM | TGI [46]: 15.8 µM | TGI [47]: 15.1 µM | TGI [48]: 15.9 µM | TGI [49]: 338 nM | TGI [50]: 471 nM | TGI [51]: 2300 nM | TGI [52]: 11 µM | TGI [53]: 14.8 µM | TGI [54]: 809 nM | TGI [55]: 6.29 µM | TGI [57]: 982 nM
